Activity and inhibition in vivo data for one molecule are collected here from ChEMBL document CHEMBL3232739, “Discovery of a potent and dissociated non-steroidal glucocorticoid receptor agonist containing an alkyl carbinol pharmacophore” (Bioorg Med Chem Lett, 2014).

The test system of series [1] is Mus musculus. Briefly: Toxicity in B10.RIII mouse assessed as triglyceride level in serum at 30 mg/kg, po qd for 5 weeks relative to control. It counts as organism-based. On the set-up: dose 30 mg/kg, route oral. The conditions noted are these: in vivo, 840 h.
Series [2] relates to Mus musculus. Briefly: Toxicity in B10.RIII mouse assessed as triglyceride level in serum at 3 mg/kg, po qd for 5 weeks relative to control. The conditions noted are these: in vivo, 840 h. Details: dose 3 mg/kg, route oral. It is filed as organism-based.
For series [3], the system named is Mus musculus. Briefly: Toxicity in B10.RIII mouse assessed as body fate level in serum at 3 mg/kg, po qd for 5 weeks relative to control. It is filed as organism-based. On the set-up: dose 3 mg/kg, route oral. Conditions: in vivo, 840 h.
The test system of series [4] is Mus musculus. Briefly: Antiarthritic activity in B10.RIII mouse collagen/complete Freund's adjuvant-induced arthritis model assessed as reduction of disease score at 30 mg/kg, po qd for 5 weeks relative to control. It is filed as functional. Details: scale not given: the % may be the effect or the level left.
In series [5] the test system is Mus musculus. Briefly: Toxicity in B10.RIII mouse assessed as insulin level in serum at 30 mg/kg, po qd for 5 weeks relative to control. It counts as organism-based. On the set-up: dose 30 mg/kg, route oral. Conditions: in vivo, 840 h.
Series [6] concerns Mus musculus. Briefly: Toxicity in B10.RIII mouse assessed as body fate level in serum at 30 mg/kg, po qd for 5 weeks relative to control. It counts as organism-based. On the set-up: dose 30 mg/kg, route oral. The conditions noted are these: in vivo, 840 h.
Series [7] concerns Mus musculus. Nature of the series: Toxicity in B10.RIII mouse assessed as insulin level in serum at 3 mg/kg, po qd for 5 weeks relative to control. It is filed as organism-based. On the set-up: dose 3 mg/kg, route oral. Conditions: in vivo, 840 h.
Series [8] has as its system Mus musculus. Briefly: Toxicity in B10.RIII mouse assessed as free fatty acid level in serum at 3 mg/kg, po qd for 5 weeks relative to control. It counts as organism-based. On the set-up: dose 3 mg/kg, route oral. The conditions noted are these: in vivo, 840 h.
Series [9] relates to Mus musculus. Nature of the series: Toxicity in B10.RIII mouse assessed as free fatty acid level in serum at 30 mg/kg, po qd for 5 weeks relative to control. It is filed as organism-based. Details: dose 30 mg/kg, route oral. Conditions: in vivo, 840 h.
Series [10] relates to Mus musculus. Briefly: Antiinflammatory activity in mouse assessed as inhibition of LPS-induced TNFalpha production at 3 mg/kg, po. It counts as functional.
Series [11] relates to Mus musculus. Briefly: Antiarthritic activity in B10.RIII mouse collagen/complete Freund's adjuvant-induced arthritis model assessed as reduction of disease score at 3 mg/kg, po qd for 5 weeks relative to control. It counts as functional. Details: scale not given: the % may be the effect or the level left.

SMILES strings stand for the structures.

A word on the inhibition in vivo: it is the change of the read-out against control, counted positive when it falls.

For the molecule `C[C@]12C=CC(=O)C=C1CC[C@@H]1[C@@H]2[C@@H](O)C[C@@]2(C)[C@H]1CC[C@]2(O)C(=O)CO` [PREDNISOLONE], the Activity in the series with Mus musculus [1] is given as 55%; with Mus musculus [2] it was -11%; with Mus musculus [3], 13%; with Mus musculus [4], -80%; with Mus musculus [5], 187%; in the series on Mus musculus [6] it was 53%. Besides, the Activity in the series with Mus musculus [7] is 37%; with Mus musculus [8], 16%; in the series on Mus musculus [9], 27%; in the series with Mus musculus [11], -42%. Further, in the series on Mus musculus [10], the inhibition in vivo at 3 mg/kg worked out at 87%.
